# Paper PMC12843137, “Fine-Tuning Side Chain Substitutions: Impacts on the Lipophilicity–Solubility–Permeability Interplay in Macrocyclic Peptides” (Marine Drugs, 2025)
# Marks after values point to notes of the source that are not given here.
# Legend:
# [1] = Kinetic solubility in PBS pH 7.4; format: physicochemical; details: PBS pH 7.4, 25 °C; for solubility at 2 h: sodium phosphate buffer (PBS), 25 °C, pH 7.4, aqueous buffer, kinetic from dmso stock
# Experimental: (§1) One explanation for the high IC50 values (i.e., low activity) of the new compounds is their potential poor solubility in aqueous solution or inadequate lipophilicity. To investigate this hypothesis, we determined kinetic solubility in […] phosphate buffer at pH 7.4 (Table 1). […] The remaining two compounds, BE and 29, show low solubilities (<0.1 μM). […] Additionally, since approximately 95% of drugs are ionizable, assessment of lipophilicity at pH 7.4 (log D7.4) is essential during the initial phases of drug discovery. In this study, we employ the shake-flask method to evaluate this property. […] Because lipophilicity directly reflects compound–membrane interaction, the activity of these compounds against PANC-1 cells likely stems from their interaction with the cell membrane.
# Solubility is determined in 100 mM sodium phosphate buffer (PBS), pH 7.4. The stock solutions of test compound and control compound progesterone are prepared in DMSO at a concentration of 10 mM. 30 µL of working solutions of each sample is placed in order into their proper 96-well rack. 970 µL of PBS pH 7.4 is added into each vial of the cap-less Solubility Sample plate. The assay is performed in duplicate. Add one stir stick to each vial and seal using a molded PTFE/Silicone plug. Then the Solubility Sample plate is transferred to the Eppendorf Thermomixer Comfort plate shaker and shaken at 25 °C at 1100 RPM for 2 h. After completion of the 2 h, plugs are removed and the stir sticks are removed using a big magnet, the samples from the Solubility Sample plate are transferred into the filter plate. Using the Vacuum Manifold, all the samples are filtered. Aliquot of 5 µL is taken from the filtrate, followed by addition of 5 µL DMSO and 490 µL of a mixture of H2O and acetonitrile (1:1 in v/v). 200 μL of diluent is transferred to a new 96-well plate for LC-MS/MS analysis (see SI Bioanalytical Method for Solubility Measurement). The dilution factor is changed according to the solubility values and the LC-MS signal response.
# MRM) / -4500 v (negative MRM). […]
# 13. Bioanalytical Method for Solubility Measurement
# MS analysis: Triple Quad TM 5500 instrument from AB Inc (Canada) with an ESI interface
# Injection volume: 1 μL, 3 μL, 5 μL or 10 μL
# Column: ACQUITY UPLC BEH C18 (2.1 × 50 mmI.D. S-1.7 μm, 12 nm) Column
# Mobile phase: 0.1% Ammonium hydroxide solution in water (A) and 0.1% Ammonium hydroxide solution
# Column: XSelect Hss T3 2.5μm (2.1 × 50 mm) Column XP
# Mobile phase: 0.1% formic acid in water (A) and 0.1% formic acid in acetonitrile (B)
# [2] = log D7.4 by shake-flask method (1-octanol/PBS); format: physicochemical; details: 1-octanol/PBS, pH 7.4, 1-Octanol/PBS pH 7.4, shake-flask
# Experimental: as §1
# The basic solution is titrated with the acidic solution to achieve pH 7.4, with the pH verified and adjusted to 7.4 ± 0.1 on the experiment day. Saturated 1-octanol and PBS (pH 7.4) are also prepared. The stock solutions of test compounds and control compound progesterone are prepared in DMSO at a concentration of 10 mM (0.666 mM: compound 39). The detailed procedure for log D determinations can be found in the SI. […]
# 4. Procedure for log D determinations […]
# µL of phosphate buffer saturated 1-octanol to get a concentration of 300 µM working solution. 20 µL of 300 µM compound solution is placed in order into their proper 96-well rack followed by the addition of 980 µL of 1-octanol saturated phosphate buffer. One stir stick is added to each vial and vials are sealed molded PTFE/Silicone plugs. Then the log D plate is transferred to the Eppendorf Thermomixer Comfort plate shaker and shaken at 25°C at 1,100 RPM for 1 h. The assay is performed in duplicate. After completion of 1 h, the stir sticks are removed using a big magnet. The samples are then centrifuged at 25°C at 20,000 g for 20 minutes to separate the phases, and syringe is used to remove the lower (buffer) phases to the empty tubes. Then the buffer phase is diluted with the same volume of acetonitrile/ultrapure water (50%/50%) for LC-MS/MS analysis. 300 µM working solution is diluted with acetonitrile/ultrapure water (50%/50%) to achieve a concentration of 3 µM. Then the 3 µM solution is diluted to 0.3 µM to get the total samples by adding 4 volumes of acetonitrile/ultrapure water (50%/50%) and 5 volumes of 1-octanol saturated Phosphate Buffer for LC-MS/MS analysis. […]
# test compounds and control compound is placed in order into their 2.0 mL deep well plate, 500 µL of […]
# followed by the addition of 500 µL of saturated PBS (pH 7.4). Seal the plate using a Silicone sealing mat.
# Then the log D plate is transferred to the Eppendorf Thermomixer Comfort plate shaker and shaken at 25°C at 2,000 RPM for 2 h. After completion of 2 h, the samples are then centrifuged at 25°C at 3,220 g for 30 minutes to separate the phases, and pipette are used to remove the upper (1-octanol) and lower (buffer) phases to the empty tubes, respectively. Aliquots of 50 µL are taken from upper phases followed by addition of 450 µL of acetonitrile (containing internal standards (IS, 200 nM labetalol, 100 nM tolbutamide and 100 nM ketoprofen)). Mix with a pipette, and then aliquots of 50 µL are taken from the diluent followed by addition of 450 µL of acetonitrile (containing internal standards (IS, 200 nM labetalol, 100 nM tolbutamide and 100 nM ketoprofen)). […]
# [3] = system: PANC-1 cells; experiment: CCK-8 antiproliferative assay, PANC-1; format: cell-based; details: Homo sapiens, CCK-8, 72 h, mean of three independent experiments
# Experimental: The inhibitory activities against human pancreatic cancer PANC-1 cells of the synthesized compounds were evaluated by CCK-8 assay.
# Human pancreatic cancer cell lines PANC-1, PATU8988T and BxPC3 were purchased from the Cancer Institute & Hospital of the Chinese Academy of Medical Sciences (Shanghai, China). All three cell lines were cultured in RPMI-DMEM medium containing 10% fetal bovine serum, cultured at a constant temperature of 37 °C in a humidified incubator with 5% CO2.
# Pancreatic cancer cells are seeded into 96-well plates. After a proliferation time of 16 h, different concentrations of compounds are added into the corresponding wells and incubated for 72 h. 10 μL of CCK-8 solution is added into each well and incubated for 1–4 h at 37 °C. Shake the plates and read the OD value of each well at 450 nm on a microplate reader.
Compound,solubility at 2 h [1] [µM],logD [2],Solubility ([1]; 2 h),IC50 [3] [µM]
CCCCCCCCCCCCCC1OC(=O)CN(C)C(=O)C=CC(CN2CCN(C)CC2)NC(=O)CNC(=O)C(C)(O)C(=O)C1C (centres unmarked) [BE-NMP],210,> 5,,
CCCCOc1ccc(-c2ccc(-c3ccc(Cn4cc(CCCCC[C@H]5OC(=O)CN(C)C(=O)/C=C/[C@@H](CN6CCN(C)CC6)NC(=O)CNC(=O)[C@@](C)(O)C(=O)[C@H]5C)nn4)cc3)cc2)cc1 [Compound 29],< 0.1,3.87,<0.063 * µM,> 100
CC1C(=O)C(C)(O)C(=O)NCC(=O)NC(CN2CCN(C)CC2)C=CC(=O)N(C)CC(=O)OC1CCCCc1cn(CCCCCCCCNC(=N)N)nn1 (centres unmarked) [Compound 31],268,,,> 100
C[C@@H]1C(=O)[C@](C)(O)C(=O)NCC(=O)N[C@H](CN2CCN(C)CC2)/C=C/C(=O)N(C)CC(=O)O[C@H]1CCCCCc1cn(CCCCCCCNc2cccc3c2CN(C2CCC(=O)NC2=O)C3=O)nn1 (some centres unmarked) [Compound 40],259,0.93,,> 100
